Results as given in ChEMBL document CHEMBL1201862, “PubChem BioAssay data set” (2004).
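Exposure lasted 48 hours, with cells grown in 96-well plates and compounds tested at five concentrations. GI50 is the concentration that inhibits growth by half.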 The source made the active and inactive calls. Cut-off read from the data, not from the text of the source: active = GI50 up to about 1.1 µM and inactive = higher.

Tests used:
Assay in all cases: NCI-60 cell line screen, 48 h
[1] = tested on: A549
[2] = tested on: BT-549
[3] = tested on: CCRF-CEM
[4] = tested on: COLO 205
[5] = tested on: HCT-116
[6] = tested on: HCT-15
[7] = tested on: K562
[8] = tested on: LOX IMVI
[9] = tested on: NCI-H23
[10] = tested on: NCI-H460
[11] = tested on: OVCAR-5
[12] = tested on: SK-MEL-5
[13] = tested on: TK-10
[14] = tested on: U-251
[15] = tested on: UACC-257
[16] = tested on: UO-31
[17] = tested on: SK-MEL-2
[18] = tested on: SK-OV-3
[19] = tested on: UACC-62
[20] = tested on: RXF 393

CCCc1c(O)nc2ccccc2c1O
GI50 [1]: > 100 µM (inactive)
GI50 [2]: > 100 µM (inactive)
GI50 [3]: > 100 µM (inactive)
GI50 [4]: > 100 µM (inactive)
GI50 [5]: > 100 µM (inactive)
GI50 [6]: > 100 µM
GI50 [7]: > 100 µM (inactive)
GI50 [8]: > 100 µM (inactive)
GI50 [9]: > 100 µM (inactive)
GI50 [10]: > 100 µM (inactive)
GI50 [11]: > 100 µM (inactive)
GI50 [12]: > 100 µM (inactive)
GI50 [13]: > 100 µM (inactive)
GI50 [14]: > 100 µM (inactive)
GI50 [15]: > 100 µM (inactive)
GI50 [16]: > 100 µM (inactive)

Cn1c(=O)cc(N2CCCC2)[nH]c1=O
GI50 [1]: > 100 µM (inactive)
GI50 [2]: > 100 µM (inactive)
GI50 [3]: > 100 µM (inactive)
GI50 [4]: > 100 µM (inactive)
GI50 [5]: > 100 µM (inactive)
GI50 [6]: > 100 µM
GI50 [7]: > 100 µM (inactive)
GI50 [8]: > 100 µM (inactive)
GI50 [9]: > 100 µM (inactive)
GI50 [10]: > 100 µM (inactive)
GI50 [11]: > 100 µM (inactive)
GI50 [17]: > 100 µM (inactive)
GI50 [12]: > 100 µM (inactive)
GI50 [13]: > 100 µM (inactive)
GI50 [14]: > 100 µM (inactive)
GI50 [15]: > 100 µM (inactive)

CC1(C)CNC(=O)C2(CCCO2)CNC(C)(C)CNC(=O)C2(CCCO2)CN1 (stereo not given)
GI50 [1]: > 10 µM (inactive)
GI50 [2]: > 10 µM (inactive)
GI50 [3]: > 10 µM (inactive)
GI50 [4]: > 10 µM (inactive)
GI50 [5]: > 10 µM (inactive)
GI50 [6]: > 10 µM
GI50 [7]: > 10 µM (inactive)
GI50 [8]: > 10 µM (inactive)
GI50 [9]: > 10 µM (inactive)
GI50 [11]: > 10 µM (inactive)
GI50 [12]: > 10 µM (inactive)
GI50 [18]: > 10 µM (inactive)
GI50 [13]: > 10 µM (inactive)
GI50 [14]: > 10 µM (inactive)
GI50 [15]: > 10 µM (inactive)
GI50 [19]: > 10 µM (inactive)

CP(C)C.[Ag][I]
GI50 [1]: > 100 µM (inactive)
GI50 [3]: 22 µM (inactive)
GI50 [4]: 47.9 µM (inactive)
GI50 [5]: 58.3 µM (inactive)
GI50 [6]: > 100 µM
GI50 [7]: > 100 µM (inactive)
GI50 [8]: 25.5 µM (inactive)
GI50 [9]: 85.3 µM (inactive)
GI50 [10]: > 100 µM (inactive)
GI50 [11]: > 100 µM (inactive)
GI50 [20]: > 100 µM (inactive)
GI50 [17]: > 100 µM (inactive)
GI50 [12]: 15.4 µM (inactive)
GI50 [18]: > 100 µM (inactive)
GI50 [13]: 41.5 µM (inactive)
GI50 [14]: > 100 µM (inactive)
GI50 [15]: > 100 µM (inactive)
GI50 [19]: > 100 µM (inactive)
GI50 [16]: > 100 µM (inactive)

O=C1/C(=C/c2ccccc2S)N=C(c2ccccc2)N1c1ccc2c(c1)Sc1cc(N3C(=O)/C(=C/c4ccccc4S)N=C3c3ccccc3)ccc1N2
GI50 [1]: 17.4 µM (inactive)
GI50 [2]: 26.7 µM (inactive)
GI50 [3]: 15.2 µM (inactive)
GI50 [4]: 31.4 µM (inactive)
GI50 [5]: 21.3 µM (inactive)
GI50 [6]: 31.6 µM
GI50 [7]: 22 µM (inactive)
GI50 [8]: 20.3 µM (inactive)
GI50 [10]: 23.7 µM (inactive)
GI50 [11]: 18.7 µM (inactive)
GI50 [17]: 23.8 µM (inactive)
GI50 [12]: 17 µM (inactive)
GI50 [18]: 17.8 µM (inactive)
GI50 [13]: 17.4 µM (inactive)
GI50 [14]: 19.7 µM (inactive)
GI50 [15]: 20.4 µM (inactive)
GI50 [19]: 20.1 µM (inactive)
GI50 [16]: 15.8 µM (inactive)

O=c1[nH]nc(Nc2ccc(Cl)cc2)c2nnn(-c3ccc([N+](=O)[O-])cc3)c12
GI50 [1]: 14.5 µM (inactive)
GI50 [2]: 19.2 µM (inactive)
GI50 [3]: 7.98 µM (inactive)
GI50 [4]: 13.3 µM (inactive)
GI50 [5]: 13.9 µM (inactive)
GI50 [6]: 14.4 µM
GI50 [7]: 6.35 µM (inactive)
GI50 [8]: 14.5 µM (inactive)
GI50 [9]: 8.59 µM (inactive)
GI50 [10]: 30.6 µM (inactive)
GI50 [11]: > 100 µM (inactive)
GI50 [17]: 24.2 µM (inactive)
GI50 [12]: 10.8 µM (inactive)
GI50 [13]: 24.7 µM (inactive)
GI50 [14]: 14.2 µM (inactive)
GI50 [15]: 34.8 µM (inactive)

COc1ccc2c(c1)-c1[nH]c3ccc(OC)cc3c1CC2
GI50 [1]: 14.3 µM (inactive)
GI50 [2]: 17.7 µM (inactive)
GI50 [3]: 14.3 µM (inactive)
GI50 [4]: 18 µM (inactive)
GI50 [5]: 17.1 µM (inactive)
GI50 [6]: 10.6 µM
GI50 [7]: 8.99 µM (inactive)
GI50 [8]: 15.2 µM (inactive)
GI50 [9]: 12.9 µM (inactive)
GI50 [10]: 16.3 µM (inactive)
GI50 [11]: 14.5 µM (inactive)
GI50 [17]: 14.5 µM (inactive)
GI50 [12]: 13.1 µM (inactive)
GI50 [18]: 18.6 µM (inactive)
GI50 [13]: 16.8 µM (inactive)
GI50 [14]: 17.3 µM (inactive)
GI50 [15]: 17.7 µM (inactive)
GI50 [19]: 15.1 µM (inactive)
GI50 [16]: 15.2 µM (inactive)

COc1cccc2c1OC1c3ccccc3OCC1C2 (stereo not given)
GI50 [1]: > 100 µM (inactive)
GI50 [2]: 62.2 µM (inactive)
GI50 [3]: 42.8 µM (inactive)
GI50 [4]: > 100 µM (inactive)
GI50 [5]: 74.6 µM (inactive)
GI50 [6]: > 100 µM
GI50 [7]: > 100 µM (inactive)
GI50 [8]: > 100 µM (inactive)
GI50 [9]: > 100 µM (inactive)
GI50 [11]: > 100 µM (inactive)
GI50 [17]: > 100 µM (inactive)
GI50 [12]: 35.7 µM (inactive)
GI50 [18]: > 100 µM (inactive)
GI50 [13]: 43.9 µM (inactive)
GI50 [14]: > 100 µM (inactive)
GI50 [15]: 83.6 µM (inactive)
GI50 [19]: > 100 µM (inactive)
GI50 [16]: 48 µM (inactive)

CC(C)(C)OC(=O)n1c2ccccc2c2c(=O)nc(N3CCCCC3)sc21
GI50 [1]: > 100 µM (inactive)
GI50 [2]: > 100 µM (inactive)
GI50 [3]: > 100 µM (inactive)
GI50 [4]: > 100 µM (inactive)
GI50 [6]: > 100 µM
GI50 [7]: > 100 µM (inactive)
GI50 [8]: > 100 µM (inactive)
GI50 [9]: > 100 µM (inactive)
GI50 [10]: 65.2 µM (inactive)
GI50 [11]: > 100 µM (inactive)
GI50 [17]: > 100 µM (inactive)
GI50 [12]: > 100 µM (inactive)
GI50 [18]: > 100 µM (inactive)
GI50 [13]: > 100 µM (inactive)
GI50 [14]: > 100 µM (inactive)
GI50 [15]: > 100 µM (inactive)
GI50 [19]: > 100 µM (inactive)
GI50 [16]: 22.3 µM (inactive)

CCC(C)[C@H](NC(=O)N[C@H](C)c1ccccc1)C(=O)OC (stereo not given in full)
GI50 [1]: > 100 µM (inactive)
GI50 [2]: > 100 µM (inactive)
GI50 [3]: > 100 µM (inactive)
GI50 [4]: > 100 µM (inactive)
GI50 [5]: > 100 µM (inactive)
GI50 [6]: > 100 µM
GI50 [7]: > 100 µM (inactive)
GI50 [8]: > 100 µM (inactive)
GI50 [9]: > 100 µM (inactive)
GI50 [10]: > 100 µM (inactive)
GI50 [11]: > 100 µM (inactive)
GI50 [17]: > 100 µM (inactive)
GI50 [12]: > 100 µM (inactive)
GI50 [18]: > 100 µM (inactive)
GI50 [13]: > 100 µM (inactive)
GI50 [14]: > 100 µM (inactive)
GI50 [15]: > 100 µM (inactive)
GI50 [19]: > 100 µM (inactive)
GI50 [16]: > 100 µM (inactive)

O=c1c(C(c2ccc(/C=C/c3ccccc3)cc2)c2c(O)oc3ccccc3c2=O)c(O)oc2ccccc12
GI50 [2]: 26.6 µM (inactive)
GI50 [3]: 41.4 µM (inactive)
GI50 [4]: 22.6 µM (inactive)
GI50 [5]: 29.6 µM (inactive)
GI50 [6]: 44 µM
GI50 [7]: > 100 µM (inactive)
GI50 [8]: 25.8 µM (inactive)
GI50 [9]: 28.1 µM (inactive)
GI50 [10]: 24.5 µM (inactive)
GI50 [17]: 34.8 µM (inactive)
GI50 [12]: 26.5 µM (inactive)
GI50 [13]: 92.5 µM (inactive)
GI50 [14]: 18.5 µM (inactive)
GI50 [15]: 53.7 µM (inactive)
GI50 [19]: 35.6 µM (inactive)
GI50 [16]: 18.6 µM (inactive)

COc1ccc2[nH]cc(CCNC(C)=O)c2c1 [MELATONIN]
GI50 [1]: > 100 µM (inactive)
GI50 [3]: > 100 µM (inactive)
GI50 [4]: 29.9 µM (inactive)
GI50 [5]: > 100 µM (inactive)
GI50 [6]: 77.4 µM
GI50 [7]: 39.1 µM (inactive)
GI50 [8]: 39.8 µM (inactive)
GI50 [9]: > 100 µM (inactive)
GI50 [10]: > 100 µM (inactive)
GI50 [11]: > 100 µM (inactive)
GI50 [20]: > 100 µM (inactive)
GI50 [17]: > 100 µM (inactive)
GI50 [12]: > 100 µM (inactive)
GI50 [18]: > 100 µM (inactive)
GI50 [13]: > 100 µM (inactive)
GI50 [14]: > 100 µM (inactive)
GI50 [15]: > 100 µM (inactive)
GI50 [19]: > 100 µM (inactive)
GI50 [16]: > 100 µM (inactive)
